The text below walks through data of paper PMC12495306 (RSC Medicinal Chemistry, 2025).

The target in data set [1] is T1, ARα2A (Homo sapiens, UniProt P08913).
T1 sequence (P08913 1-465): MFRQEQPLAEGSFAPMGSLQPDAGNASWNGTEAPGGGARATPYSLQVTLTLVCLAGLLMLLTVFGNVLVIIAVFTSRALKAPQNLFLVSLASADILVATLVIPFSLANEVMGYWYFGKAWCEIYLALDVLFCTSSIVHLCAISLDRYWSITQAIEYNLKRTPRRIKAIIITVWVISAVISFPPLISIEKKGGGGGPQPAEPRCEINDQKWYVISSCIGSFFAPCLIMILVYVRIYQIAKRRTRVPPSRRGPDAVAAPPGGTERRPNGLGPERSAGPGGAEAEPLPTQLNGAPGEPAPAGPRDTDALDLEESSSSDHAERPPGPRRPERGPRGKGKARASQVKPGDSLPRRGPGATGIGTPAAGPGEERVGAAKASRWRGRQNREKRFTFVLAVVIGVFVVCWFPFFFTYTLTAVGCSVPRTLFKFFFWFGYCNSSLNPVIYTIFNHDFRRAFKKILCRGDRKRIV
Kind of data set: GPCR Tango β-arrestin recruitment assay, ARα2A transfected HEK293. The data set is classed as cell-based. The following applies: for activation of ARα2A: agonist mode; for antagonism of ARα2A: in the presence of 300 nM norepinephrine. Background: Activated receptors often draw arrestin, which recruitment assays turn into a signal.

Data set [2] can be described thus: Pharmacokinetic study, blood and brain. The class given is in vivo, mice. The following applies: 40 mg kg−1 oral.
For data set [3], the target named is T2, ARα2C (Homo sapiens, UniProt P18825).
T2 sequence (P18825 1-462): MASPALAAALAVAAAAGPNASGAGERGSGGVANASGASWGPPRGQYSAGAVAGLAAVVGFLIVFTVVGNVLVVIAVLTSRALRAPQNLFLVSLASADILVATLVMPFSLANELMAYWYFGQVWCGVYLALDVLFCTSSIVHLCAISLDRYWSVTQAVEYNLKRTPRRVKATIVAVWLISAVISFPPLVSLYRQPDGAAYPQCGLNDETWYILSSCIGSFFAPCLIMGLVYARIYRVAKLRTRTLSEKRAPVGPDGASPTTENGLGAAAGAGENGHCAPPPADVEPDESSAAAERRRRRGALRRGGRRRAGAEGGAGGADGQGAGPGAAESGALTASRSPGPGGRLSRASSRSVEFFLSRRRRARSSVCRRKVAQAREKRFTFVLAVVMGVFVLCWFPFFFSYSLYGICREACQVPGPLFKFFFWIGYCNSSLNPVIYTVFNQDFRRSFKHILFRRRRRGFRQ
Kind of data set: GPCR Tango β-arrestin recruitment assay, ARα2C transfected HEK293. The data set is classed as cell-based. The following applies: for activation of ARα2C: agonist mode; for antagonism of ARα2C: in the presence of 300 nM norepinephrine.

In data set [4] the test system is HEK293 cells. Kind of data set: Cell viability / cytotoxicity assay. The class given is cell-based, human. To be noted: CellTiter-Glo, 18 h. For orientation: Cellular ATP, detected with luciferase, serves as a proxy for viable cell number.
The subject of data set [5] is Female Swiss Webster mice. As to the kind of experiment: Open field test. The class given is in vivo. The following applies: 40 mg kg−1 oral; 40 min after administration; n = 6.
Data set [6] deals with T3, ARα2B (Homo sapiens, UniProt P18089).
T3 sequence (P18089 1-450): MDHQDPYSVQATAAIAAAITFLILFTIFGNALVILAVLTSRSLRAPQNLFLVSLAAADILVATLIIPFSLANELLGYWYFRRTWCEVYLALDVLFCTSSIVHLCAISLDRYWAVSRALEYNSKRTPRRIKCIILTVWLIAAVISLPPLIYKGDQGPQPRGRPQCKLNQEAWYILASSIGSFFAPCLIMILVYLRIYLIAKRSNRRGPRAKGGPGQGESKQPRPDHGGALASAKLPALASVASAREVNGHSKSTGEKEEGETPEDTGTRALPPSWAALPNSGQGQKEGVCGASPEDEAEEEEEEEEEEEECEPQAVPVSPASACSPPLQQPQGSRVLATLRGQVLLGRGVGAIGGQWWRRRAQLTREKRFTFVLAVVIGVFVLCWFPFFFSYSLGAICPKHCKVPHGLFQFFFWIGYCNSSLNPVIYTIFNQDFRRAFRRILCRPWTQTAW
The data set is classed as cell-based. The following applies: for activation of ARα2B: agonist mode; for antagonism of ARα2B: in the presence of 300 nM norepinephrine.

Data set [7] has as its system Female Swiss Webster mice. Kind of data set: Rotarod sensorimotor study. The data set is classed as in vivo. To be noted: 40 mg kg−1 oral; measured after 10, 30 and 60 minutes; n = 8. (In general: In the rotarod test animals must keep their balance on a rotating rod.)
Data set [8] addresses T2, ARα2C. As to the kind of experiment: ARα2C radioligand. The data set is classed as binding.
Data set [9] has as its target T1, ARα2A. Kind of data set: ARα2A radioligand. The class given is binding.
Data set [10] addresses T3, ARα2B. Kind of data set: ARα2B radioligand. The data set is classed as binding. The following applies: for inhibition at 10 µM: read-out: ARα2B binding (% inhibition at 10 μM).
The nature of data set [11]: Aqueous solubility, shake flask method. The data set is classed as physicochemical. To be noted: pH 7.4, PBS, 24 h.
The test system of data set [12] is mice. To be noted: cited from earlier work.
For data set [13], the system named is mice. To be noted: cited from earlier work. The source holds these as a separate data set.
Where [14] appears, read: ARα2A binding Ki, competition with 3H-Rauwolscinein, concentration response.

pKi: −log10 of the molar value. A value given as a limit tells only on which side of the number the result lay.

One may read the pKi as the negative decadic logarithm of the Ki, by convention in mol/L. For orientation: inhibition means the change of the read-out against control, counted positive when it falls. Turning to `CC1N=C(c2ccccc2F)c2cc(Nc3ccccc3)ccc2NC1=O` (stereo not drawn) [Compound 2, 7-Anilino-5-(2-fluorophenyl)-3-methyl-1,3-dihydro-2H-1,4-benzodiazepin-2-one], in data set [1], the “activation of ARα2A” value was “did not activate” and the “antagonism of ARα2A” value is given as “antagonized”. For the same compound, in [2] (mice), the oral availability entry is “orally available”. For the same compound, the “blood : brain ratios” value in data set [2] (10, 30, 60 min) is given as “increased over time”. In data set [2] (as early as 10 min, n = 4), the “concentration in blood and brain” value is “appreciable concentration of 2 in blood and brain that exceeded the affinity of 2 for the target receptor”. In addition, in data set [3], the “activation of ARα2C” value was “did not activate” and the “antagonism of ARα2C” value was “antagonized”. In data set [4], the “Cytotoxicity LD50” value was determined as 100 ± 19 µM. For the same compound, the “sedation (open field test)” value in data set [5] is reported as “no sedation”. In [6], the “activation of ARα2B” value is recorded as “did not activate” and the “antagonism of ARα2B” value is given as “antagonized”. In addition, the “sensorimotor inhibition on rotarod” value in [7] was “did not observe any sensorimotor inhibition”. Besides, in data set [8], the pKi is 5.95. In addition, in data set [9] (ARα2A Ki, rounded value), the pKi was 5.41. Further, the pKi in data set [9] (setting [14]) was 5.41. In data set [10], the pKi was 6.29 and the inhibition at 10 µM was found to be 90%. Further, in data set [10] (from Ki values), the “selectivity for α2B over the α2A subtype” value worked out at 7.7 fold and the “selectivity for α2B over the α2C subtype” value turned out to be 2.2 fold.
The Aqueous solubility is the concentration that dissolves in the medium under given conditions. Read a high Aqueous solubility as much dissolved substance. In the case of `CC1N=C(c2ccccc2F)c2cc(Nc3ccccc3F)ccc2NC1=O` (stereo not drawn) [Compound 14, 7-(2-Fluoroanilino)-5-(2-fluorophenyl)-3-methyl-1,3-dihydro-2H-1,4-benzodiazepin-2-one], the “Cytotoxicity LD50” value in data set [4] came out at 90 ± 27 µM. This compound had an Aqueous solubility in data set [11] of 26.0 ± 2.10 µM. In addition, the pKi in [8] was 5.67; in data set [9] (setting [14]), 5.65; in data set [10], 5.89. Besides, the inhibition at 10 µM in data set [10] was 82%.
Consider `COc1ccccc1Nc1ccc2c(c1)C(c1ccccc1F)=NC(C)C(=O)N2` (stereo not drawn) [Compound 17, 5-(2-Fluorophenyl)-7-(2-methoxyanilino)-3-methyl-1,3-dihydro-2H-1,4-benzodiazepin-2-one], for which, in [1], the “activation of ARα2A” value is on record as “did not activate” and the “antagonism of ARα2A” value is on record as “antagonized”. In data set [3], the “activation of ARα2C” value is “did not activate” and the “antagonism of ARα2C” value was “antagonized”. The “Cytotoxicity LD50” value in data set [4] turned out to be 148 ± 12 µM. Besides, in data set [5], the “sedation (open field test)” value is “no sedation”. In [6], the “activation of ARα2B” value is on record as “did not activate” and the “antagonism of ARα2B” value is listed as “antagonized”. The “sensorimotor inhibition on rotarod” value in [7] is listed as “did not observe any sensorimotor inhibition”. Further, the pKi in data set [8] was 6.13. Besides, the pKi in data set [9] (setting [14]) is 5.69. Further, in [10], the pKi was 6.22 and the inhibition at 10 µM was found to be 91%.
Take `CC1N=C(c2ccccc2F)c2cc(NC(C)(C)C)ccc2NC1=O` (stereo not drawn) [Compound 25, 7-(tert-Butylamino)-5-(2-fluorophenyl)-3-methyl-1,3-dihydro-2H-1,4-benzodiazepin-2-one]: the “Cytotoxicity LD50” value in data set [4] is above 300 µM. For the same compound, the Aqueous solubility in data set [11] is 393.6 ± 10.40 µM. The inhibition at 10 µM in data set [10] was 40%.
In the case of `CCC1(c2cnc[nH]2)Cc2ccccc2C1` [atipamezole], the “locomotion (OFT)” value in data set [12] (1 mg kg−1) is “did not modulate locomotion”.
Consider `Cc1cccc([C@H](C)c2cnc[nH]2)c1C` [dexmedetomidine], for which the “activity scores (OFT)” value in data set [12] (30 μg kg−1 (s.c.)) is on record as “significantly reduced the activity scores”. The “ability of mice to stay on the rotating rod” value in [13] (i.p. doses of higher than 10 μg kg−1) is “reduced the ability of mice to stay on the rotating rod”.
In the case of `Cc1ccc(N(CC2=NCCN2)c2cccc(O)c2)cc1` [phentolamine], the “ability of mice to complete a rotarod exercise” value in data set [13] (4 mg kg−1 (i.p.)) is given as “do not usually alter the ability of mice to complete a rotarod exercise”.
